Measured values from US6384186B2 (priority 1995, dated 2002).
Square brackets hold non-standard residues; d marks the D form. Peptide text beside a SMILES is read from it. NMeI = CC[CH](C)[CH](NC)C(=O)O; NMeV = CN[CH](C(=O)O)C(C)C; Sar = CNCC(=O)O

Work on `CCC(C)C1NC(=O)C(C(C)C)N(C)C(=O)C(Cc2c[nH]c3ccccc23)NC(=O)CN(C)C(=O)C(C(C)CC)N(C)C(=O)C(C(C)C)NC(=O)CN(C)C(=O)C(C(C)CC)N(C)C(=O)C(C(C)C)N(C)C(=O)CN(C)C(=O)C(C(C)C)N(C)C(=O)C(C(C)C)N(C)C1=O` (centres unmarked) [omphalotin] (cyclo([Sar][NMeV][NMeI][Sar]V[NMeI][Sar]W[NMeV]I[NMeV][NMeV]); configuration not given here) yielded an Efficacy of omphalotin (Fusarium graminearum) of 23% and an Efficacy of omphalotin (Pyricularia oryzae) of 70%.
